# Measurements taken from US10206860B2, “Biguanide preservation of precipitated calcium carbonate” (Colgate-Palmolive Company, priority 2009, dated 2019).
# Test: Association of PHMB with PCC after drying (drum dryer)
# Type: physicochemical
# Details: only water is evaporated
# Text: Although PHMB is water soluble, with the drying process used for PCC (a drum dryer), only water is evaporated; the PHMB remains associated with the PCC.
substance,measurement,value
poly[(hexamethylene)biguanide] [PHMB],Association of PHMB with the PCC after the drying process,remains associated with the PCC after the drying process
